Assay results published in ChEMBL document CHEMBL4507268 (2021).

What was measured:
[1] = biological target: cAMP-dependent protein kinase catalytic subunit alpha (Homo sapiens) (UniProt P17612); conditions: Compound concentration 1000.0 nM
[2] = biological target: Receptor-type tyrosine-protein kinase FLT3 (Homo sapiens) (UniProt P36888); conditions: Compound concentration 1000.0 nM
[3] = biological target: Protein-tyrosine kinase 2-beta (Homo sapiens) (UniProt Q14289); conditions: Compound concentration 1000.0 nM
Chain of Protein-tyrosine kinase 2-beta (Homo sapiens) (Q14289 whole entry, looked up): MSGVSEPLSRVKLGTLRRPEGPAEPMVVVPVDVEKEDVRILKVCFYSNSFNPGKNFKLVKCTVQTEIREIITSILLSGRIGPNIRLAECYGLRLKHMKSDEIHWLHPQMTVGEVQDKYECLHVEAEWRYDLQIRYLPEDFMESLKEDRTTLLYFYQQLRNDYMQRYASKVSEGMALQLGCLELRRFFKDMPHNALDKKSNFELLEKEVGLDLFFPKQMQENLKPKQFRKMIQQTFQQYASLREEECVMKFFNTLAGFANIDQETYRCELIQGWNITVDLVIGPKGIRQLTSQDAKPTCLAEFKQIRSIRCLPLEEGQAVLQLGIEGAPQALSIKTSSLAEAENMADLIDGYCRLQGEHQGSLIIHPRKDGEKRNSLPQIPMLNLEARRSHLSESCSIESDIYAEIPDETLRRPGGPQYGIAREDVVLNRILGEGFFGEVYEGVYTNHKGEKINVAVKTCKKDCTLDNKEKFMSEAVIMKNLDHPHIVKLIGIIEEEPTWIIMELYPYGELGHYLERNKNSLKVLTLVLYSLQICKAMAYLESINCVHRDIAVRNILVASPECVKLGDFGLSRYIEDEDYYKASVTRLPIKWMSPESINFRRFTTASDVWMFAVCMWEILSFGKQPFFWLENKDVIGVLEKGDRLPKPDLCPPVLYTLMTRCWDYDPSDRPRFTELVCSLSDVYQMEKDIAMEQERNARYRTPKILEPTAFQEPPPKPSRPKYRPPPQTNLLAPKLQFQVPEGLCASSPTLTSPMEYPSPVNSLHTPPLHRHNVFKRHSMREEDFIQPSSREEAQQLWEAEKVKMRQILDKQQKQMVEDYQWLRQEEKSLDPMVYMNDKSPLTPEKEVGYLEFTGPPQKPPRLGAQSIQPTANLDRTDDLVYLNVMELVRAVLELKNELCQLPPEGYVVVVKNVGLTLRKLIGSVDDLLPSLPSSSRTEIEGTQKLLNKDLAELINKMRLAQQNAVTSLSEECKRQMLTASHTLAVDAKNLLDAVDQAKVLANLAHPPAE

[4] = biological target: 5-hydroxytryptamine receptor 1E (Homo sapiens) (UniProt P28566); conditions: Compound concentration 10.0 uM
Chain of 5-hydroxytryptamine receptor 1E (Homo sapiens) (P28566 whole entry): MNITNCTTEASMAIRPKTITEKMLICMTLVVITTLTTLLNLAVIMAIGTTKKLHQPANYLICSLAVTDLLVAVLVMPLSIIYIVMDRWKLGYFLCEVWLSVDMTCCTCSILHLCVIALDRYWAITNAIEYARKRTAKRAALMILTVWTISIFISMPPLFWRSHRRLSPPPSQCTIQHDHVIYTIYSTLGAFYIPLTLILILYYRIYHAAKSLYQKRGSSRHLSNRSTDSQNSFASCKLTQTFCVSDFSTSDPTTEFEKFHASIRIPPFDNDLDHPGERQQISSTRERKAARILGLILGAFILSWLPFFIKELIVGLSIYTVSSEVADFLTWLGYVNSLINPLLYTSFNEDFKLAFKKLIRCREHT

[5] = biological target: T1, Serine/threonine-protein kinase ULK2 (Homo sapiens) (UniProt Q8IYT8); conditions: Compound concentration 1000.0 nM
T1 sequence (whole entry): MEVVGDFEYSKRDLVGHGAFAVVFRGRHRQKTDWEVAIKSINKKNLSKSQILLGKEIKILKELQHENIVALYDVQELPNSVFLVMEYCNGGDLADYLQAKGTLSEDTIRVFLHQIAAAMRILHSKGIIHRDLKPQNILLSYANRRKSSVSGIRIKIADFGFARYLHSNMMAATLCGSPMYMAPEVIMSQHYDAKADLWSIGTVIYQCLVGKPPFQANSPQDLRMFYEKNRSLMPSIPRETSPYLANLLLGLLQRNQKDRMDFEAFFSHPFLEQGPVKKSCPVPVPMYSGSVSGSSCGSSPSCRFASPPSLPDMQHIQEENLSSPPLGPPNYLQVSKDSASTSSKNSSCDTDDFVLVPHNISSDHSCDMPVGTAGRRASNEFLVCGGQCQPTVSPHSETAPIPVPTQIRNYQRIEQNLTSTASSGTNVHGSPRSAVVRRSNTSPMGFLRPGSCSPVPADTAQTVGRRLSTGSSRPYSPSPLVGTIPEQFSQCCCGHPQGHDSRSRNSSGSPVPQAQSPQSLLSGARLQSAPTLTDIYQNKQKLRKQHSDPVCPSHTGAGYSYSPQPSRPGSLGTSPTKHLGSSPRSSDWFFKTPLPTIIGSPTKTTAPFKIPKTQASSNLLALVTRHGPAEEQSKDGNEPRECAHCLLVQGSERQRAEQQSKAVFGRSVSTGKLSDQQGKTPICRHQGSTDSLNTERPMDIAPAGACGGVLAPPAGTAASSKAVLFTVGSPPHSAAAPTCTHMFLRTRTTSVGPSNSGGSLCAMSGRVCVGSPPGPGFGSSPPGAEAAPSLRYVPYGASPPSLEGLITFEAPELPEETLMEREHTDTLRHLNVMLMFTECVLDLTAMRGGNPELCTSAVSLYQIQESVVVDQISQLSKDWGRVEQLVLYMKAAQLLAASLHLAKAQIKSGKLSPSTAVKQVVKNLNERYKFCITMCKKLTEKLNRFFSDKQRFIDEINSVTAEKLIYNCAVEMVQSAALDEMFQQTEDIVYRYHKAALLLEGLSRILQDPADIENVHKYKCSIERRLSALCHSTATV

[6] = biological target: 5-hydroxytryptamine receptor 5A (Homo sapiens) (UniProt P47898); conditions: Compound concentration 10.0 uM
Chain of 5-hydroxytryptamine receptor 5A (Homo sapiens) (P47898 whole entry, canonical isoform): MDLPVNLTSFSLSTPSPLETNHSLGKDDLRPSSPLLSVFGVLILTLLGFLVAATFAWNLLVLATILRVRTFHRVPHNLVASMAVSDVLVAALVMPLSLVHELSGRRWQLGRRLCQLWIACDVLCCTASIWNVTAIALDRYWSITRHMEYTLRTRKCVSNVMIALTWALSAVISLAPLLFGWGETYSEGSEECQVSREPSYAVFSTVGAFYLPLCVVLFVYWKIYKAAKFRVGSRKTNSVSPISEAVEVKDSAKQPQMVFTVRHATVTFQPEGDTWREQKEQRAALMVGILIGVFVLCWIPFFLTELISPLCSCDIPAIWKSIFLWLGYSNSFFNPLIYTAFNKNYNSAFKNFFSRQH

[7] = biological target: Phosphatidylinositol 4,5-bisphosphate 3-kinase catalytic subunit delta isoform (Homo sapiens) (UniProt O00329); conditions: Compound concentration 1000.0 nM
Chain of Phosphatidylinositol 4,5-bisphosphate 3-kinase catalytic subunit delta isoform (Homo sapiens) (O00329 whole entry, canonical isoform): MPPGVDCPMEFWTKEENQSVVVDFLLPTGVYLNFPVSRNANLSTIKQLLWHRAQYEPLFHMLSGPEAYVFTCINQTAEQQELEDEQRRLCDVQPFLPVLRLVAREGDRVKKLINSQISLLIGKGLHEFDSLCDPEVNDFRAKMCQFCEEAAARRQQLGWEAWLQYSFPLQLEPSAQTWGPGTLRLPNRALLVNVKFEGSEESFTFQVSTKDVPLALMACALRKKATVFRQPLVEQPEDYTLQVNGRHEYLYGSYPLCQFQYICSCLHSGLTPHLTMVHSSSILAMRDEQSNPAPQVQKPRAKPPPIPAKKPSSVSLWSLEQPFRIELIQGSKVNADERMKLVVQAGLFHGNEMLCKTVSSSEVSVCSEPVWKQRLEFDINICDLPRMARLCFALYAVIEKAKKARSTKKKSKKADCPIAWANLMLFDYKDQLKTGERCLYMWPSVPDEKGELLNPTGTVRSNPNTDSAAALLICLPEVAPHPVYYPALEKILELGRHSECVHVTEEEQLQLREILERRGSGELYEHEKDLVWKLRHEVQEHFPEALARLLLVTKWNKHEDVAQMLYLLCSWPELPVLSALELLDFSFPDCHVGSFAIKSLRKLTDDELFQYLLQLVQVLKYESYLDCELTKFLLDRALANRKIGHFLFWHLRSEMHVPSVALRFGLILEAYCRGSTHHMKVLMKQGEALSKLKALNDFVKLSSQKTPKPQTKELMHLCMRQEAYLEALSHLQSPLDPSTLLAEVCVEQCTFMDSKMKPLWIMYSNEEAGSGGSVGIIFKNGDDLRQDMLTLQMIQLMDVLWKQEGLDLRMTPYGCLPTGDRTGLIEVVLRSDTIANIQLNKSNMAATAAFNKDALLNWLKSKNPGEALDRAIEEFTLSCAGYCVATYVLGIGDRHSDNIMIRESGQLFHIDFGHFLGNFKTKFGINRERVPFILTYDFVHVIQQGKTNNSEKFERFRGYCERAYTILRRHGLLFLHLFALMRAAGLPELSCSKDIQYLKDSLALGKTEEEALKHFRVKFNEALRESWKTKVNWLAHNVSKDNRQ

[8] = biological target: Serine/threonine-protein kinase/endoribonuclease IRE1 (Homo sapiens) (UniProt O75460); conditions: Compound concentration 1000.0 nM
[9] = biological target: Histamine H4 receptor (Homo sapiens) (UniProt Q9H3N8); conditions: Compound concentration 10.0 uM
[10] = biological target: Protein kinase C delta type (Homo sapiens) (UniProt Q05655); conditions: Compound concentration 1000.0 nM
Chain of Protein kinase C delta type (Homo sapiens) (Q05655 whole entry, looked up): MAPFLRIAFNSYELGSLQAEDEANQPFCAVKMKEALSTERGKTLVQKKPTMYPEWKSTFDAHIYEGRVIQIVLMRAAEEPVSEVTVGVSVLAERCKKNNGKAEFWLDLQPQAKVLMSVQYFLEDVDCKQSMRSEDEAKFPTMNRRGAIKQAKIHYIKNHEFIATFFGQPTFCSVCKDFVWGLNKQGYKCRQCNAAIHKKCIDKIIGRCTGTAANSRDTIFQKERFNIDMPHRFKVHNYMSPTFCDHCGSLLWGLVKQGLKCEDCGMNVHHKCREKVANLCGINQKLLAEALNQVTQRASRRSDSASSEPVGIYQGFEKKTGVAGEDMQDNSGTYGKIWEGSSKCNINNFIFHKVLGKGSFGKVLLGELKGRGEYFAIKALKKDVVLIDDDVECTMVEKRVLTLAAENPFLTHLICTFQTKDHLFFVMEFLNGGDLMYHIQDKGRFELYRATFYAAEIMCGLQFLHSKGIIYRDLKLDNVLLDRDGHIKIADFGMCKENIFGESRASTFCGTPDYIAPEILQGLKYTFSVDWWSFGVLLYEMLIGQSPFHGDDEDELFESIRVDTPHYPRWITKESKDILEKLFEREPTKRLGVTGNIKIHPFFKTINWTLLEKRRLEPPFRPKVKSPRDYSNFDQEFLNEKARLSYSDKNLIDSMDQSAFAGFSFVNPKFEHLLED

[11] = biological target: Fibroblast growth factor receptor 3 (Homo sapiens) (UniProt P22607); conditions: Compound concentration 1000.0 nM
[12] = biological target: Tyrosine-protein kinase Fyn (Homo sapiens) (UniProt P06241); conditions: Compound concentration 1000.0 nM
Chain of Tyrosine-protein kinase Fyn (Homo sapiens) (P06241 2-537 limits assumed): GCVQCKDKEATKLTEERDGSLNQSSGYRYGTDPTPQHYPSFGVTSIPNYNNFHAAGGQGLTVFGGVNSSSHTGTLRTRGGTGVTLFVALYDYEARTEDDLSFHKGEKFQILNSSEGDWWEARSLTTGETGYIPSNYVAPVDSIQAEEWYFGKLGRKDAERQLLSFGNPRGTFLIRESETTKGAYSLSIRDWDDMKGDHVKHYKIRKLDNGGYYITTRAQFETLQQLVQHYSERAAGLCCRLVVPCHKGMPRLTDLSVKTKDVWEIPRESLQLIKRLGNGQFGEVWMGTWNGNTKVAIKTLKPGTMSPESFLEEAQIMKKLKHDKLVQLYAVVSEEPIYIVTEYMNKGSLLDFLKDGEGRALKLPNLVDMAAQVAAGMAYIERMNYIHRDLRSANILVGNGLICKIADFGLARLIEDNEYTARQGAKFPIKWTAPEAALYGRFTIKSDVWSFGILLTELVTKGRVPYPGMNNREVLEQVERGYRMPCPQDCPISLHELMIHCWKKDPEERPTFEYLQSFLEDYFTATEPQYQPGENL

[13] = biological target: Mitogen-activated protein kinase kinase kinase 6 (Homo sapiens) (UniProt O95382); conditions: Compound concentration 1000.0 nM
[14] = biological target: 5-hydroxytryptamine receptor 6 (Homo sapiens) (UniProt P50406); conditions: Compound concentration 10.0 uM
[15] = biological target: Tyrosine-protein kinase Fes/Fps (Homo sapiens) (UniProt P07332); conditions: Compound concentration 1000.0 nM
[16] = biological target: Casein kinase I isoform alpha (Homo sapiens) (UniProt P48729); conditions: Compound concentration 1000.0 nM
[17] = biological target: Serine/threonine-protein kinase MARK1 (Homo sapiens) (UniProt Q9P0L2); conditions: Compound concentration 1000.0 nM
[18] = biological target: Leucine-rich repeat serine/threonine-protein kinase 2 (Homo sapiens) (UniProt Q5S007); conditions: Compound concentration 1000.0 nM
[19] = biological target: 5'-AMP-activated protein kinase catalytic subunit alpha-1 (Homo sapiens) (UniProt Q13131); conditions: Compound concentration 1000.0 nM
[20] = biological target: Tyrosine-protein kinase JAK1 (Homo sapiens) (UniProt P23458); conditions: Compound concentration 1000.0 nM
[21] = biological target: T2, Tyrosine-protein kinase TXK (Homo sapiens) (UniProt P42681); conditions: Compound concentration 1000.0 nM
T2 sequence (whole entry): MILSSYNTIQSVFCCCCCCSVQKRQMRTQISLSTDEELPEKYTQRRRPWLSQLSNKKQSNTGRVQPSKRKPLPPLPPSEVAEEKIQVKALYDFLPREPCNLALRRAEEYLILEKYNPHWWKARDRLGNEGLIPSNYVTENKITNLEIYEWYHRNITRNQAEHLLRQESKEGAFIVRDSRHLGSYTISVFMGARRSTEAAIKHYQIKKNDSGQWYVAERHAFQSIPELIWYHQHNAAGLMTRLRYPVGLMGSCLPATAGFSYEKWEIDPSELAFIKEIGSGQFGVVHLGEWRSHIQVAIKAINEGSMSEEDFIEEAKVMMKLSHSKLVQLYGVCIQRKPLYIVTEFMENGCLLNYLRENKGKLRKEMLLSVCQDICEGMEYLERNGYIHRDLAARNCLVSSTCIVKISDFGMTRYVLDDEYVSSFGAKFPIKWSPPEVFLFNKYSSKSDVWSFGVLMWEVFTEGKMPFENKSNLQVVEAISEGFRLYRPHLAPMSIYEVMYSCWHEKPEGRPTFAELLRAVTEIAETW

Chain of Receptor-type tyrosine-protein kinase FLT3 (Homo sapiens) (P36888 whole entry): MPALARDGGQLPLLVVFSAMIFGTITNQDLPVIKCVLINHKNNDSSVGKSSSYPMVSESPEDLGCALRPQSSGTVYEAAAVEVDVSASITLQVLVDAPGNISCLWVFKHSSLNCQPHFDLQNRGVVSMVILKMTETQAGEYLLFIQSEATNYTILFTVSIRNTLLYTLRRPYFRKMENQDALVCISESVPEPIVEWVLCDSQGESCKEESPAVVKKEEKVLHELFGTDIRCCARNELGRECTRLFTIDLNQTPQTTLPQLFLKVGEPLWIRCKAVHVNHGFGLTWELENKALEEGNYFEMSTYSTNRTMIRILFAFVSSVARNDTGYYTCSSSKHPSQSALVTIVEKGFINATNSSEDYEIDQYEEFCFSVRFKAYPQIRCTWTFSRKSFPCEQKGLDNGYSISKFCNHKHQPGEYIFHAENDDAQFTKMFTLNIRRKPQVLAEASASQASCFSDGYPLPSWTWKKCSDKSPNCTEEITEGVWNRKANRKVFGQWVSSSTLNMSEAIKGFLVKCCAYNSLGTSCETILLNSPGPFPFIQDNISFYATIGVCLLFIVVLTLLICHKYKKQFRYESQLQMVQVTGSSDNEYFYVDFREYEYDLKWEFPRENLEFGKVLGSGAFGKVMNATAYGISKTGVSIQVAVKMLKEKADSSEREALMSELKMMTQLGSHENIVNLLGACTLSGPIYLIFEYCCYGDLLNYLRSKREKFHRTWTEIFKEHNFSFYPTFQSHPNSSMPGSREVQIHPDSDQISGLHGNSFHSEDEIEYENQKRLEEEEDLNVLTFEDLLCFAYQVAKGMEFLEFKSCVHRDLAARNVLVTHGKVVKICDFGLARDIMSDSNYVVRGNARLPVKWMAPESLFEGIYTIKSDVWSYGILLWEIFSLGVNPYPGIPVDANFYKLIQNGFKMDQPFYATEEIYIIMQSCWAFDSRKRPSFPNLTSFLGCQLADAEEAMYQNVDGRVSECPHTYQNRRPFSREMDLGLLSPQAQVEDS

Cc1nc(C2CCN(C(=O)c3ccc(OC(F)(F)F)cc3N)CC2)c2ncc(N3CCN(C)CC3)cc2n1 [BAY-693]
inactive: residual activity [1] 100% | residual activity [2] 83% | residual activity [3] 100% | inhibition [4] -9.94% | residual activity [5] 100% | inhibition [6] -3.74% | residual activity [7] 78% | residual activity [8] 100% | inhibition [9] -5.28% | residual activity [10] 100% | residual activity [11] 100% | residual activity [12] 96% | residual activity [13] 100% | inhibition [14] -1.38% | residual activity [15] 96% | residual activity [16] 100% | residual activity [17] 100% | residual activity [18] 89% | residual activity [19] 98% | residual activity [20] 95% | residual activity [21] 100%

CN1CCN(c2cnc3c(C4CCN(C(=O)c5ccc(OC(F)(F)F)cc5N)CC4)ncnc3c2)CC1 [BAY-885]
inactive: residual activity [1] 100% | residual activity [2] 100% | residual activity [3] 100% | inhibition [4] 14.2% | residual activity [5] 100% | inhibition [6] -1.47% | residual activity [7] 86% | residual activity [8] 99% | inhibition [9] -1.34% | residual activity [10] 100% | residual activity [11] 100% | residual activity [12] 100% | residual activity [13] 100% | inhibition [14] -4.69% | residual activity [15] 100% | residual activity [16] 91% | residual activity [17] 100% | residual activity [18] 100% | residual activity [19] 87% | residual activity [20] 100% | residual activity [21] 88%
